From patent US10000512B2, “Compounds for the treatment of infectious diseases” (Hoffmann-La Roche Inc., priority 2014, dated 2018)

Columns and labels:
human TLR7 = target: T1, human TLR7 (Homo sapiens, UniProt Q9NYK1); assay: HEK293-Blue-hTLR-7 cells assay (SEAP reporter); format: cell-based; settings: 20 hours incubation
T1 sequence (Q9NYK1 27-1049): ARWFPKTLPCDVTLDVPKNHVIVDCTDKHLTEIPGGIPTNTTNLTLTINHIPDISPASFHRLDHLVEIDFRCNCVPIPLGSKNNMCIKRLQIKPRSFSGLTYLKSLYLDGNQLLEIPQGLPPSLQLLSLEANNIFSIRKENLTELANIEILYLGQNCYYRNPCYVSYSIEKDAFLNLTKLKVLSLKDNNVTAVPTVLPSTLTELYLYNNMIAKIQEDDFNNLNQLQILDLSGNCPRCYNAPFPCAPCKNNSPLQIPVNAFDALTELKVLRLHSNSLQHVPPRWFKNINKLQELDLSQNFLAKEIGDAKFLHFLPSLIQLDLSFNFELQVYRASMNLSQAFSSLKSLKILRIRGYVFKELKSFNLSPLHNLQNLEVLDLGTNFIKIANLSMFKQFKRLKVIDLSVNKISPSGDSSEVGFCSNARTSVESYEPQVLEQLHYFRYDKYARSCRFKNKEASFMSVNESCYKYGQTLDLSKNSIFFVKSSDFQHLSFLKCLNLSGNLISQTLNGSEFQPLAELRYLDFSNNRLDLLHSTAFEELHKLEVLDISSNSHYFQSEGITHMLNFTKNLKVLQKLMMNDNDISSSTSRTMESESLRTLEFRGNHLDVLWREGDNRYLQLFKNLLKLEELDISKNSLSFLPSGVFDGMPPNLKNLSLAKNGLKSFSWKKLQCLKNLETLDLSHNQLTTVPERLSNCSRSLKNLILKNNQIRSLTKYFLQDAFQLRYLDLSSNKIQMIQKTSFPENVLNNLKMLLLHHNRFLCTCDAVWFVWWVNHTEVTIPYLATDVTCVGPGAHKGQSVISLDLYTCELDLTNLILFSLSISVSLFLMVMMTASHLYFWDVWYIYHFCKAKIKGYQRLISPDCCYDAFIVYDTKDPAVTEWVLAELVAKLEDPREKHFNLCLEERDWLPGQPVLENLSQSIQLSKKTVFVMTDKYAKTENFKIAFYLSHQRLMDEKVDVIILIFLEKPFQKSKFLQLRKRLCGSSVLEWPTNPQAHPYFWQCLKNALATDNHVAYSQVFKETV
Text: A stable HEK293-Blue-hTLR-7 cell line was purchased from InvivoGen (Cat.#: hkb-ht1r7, San Diego, Calif., USA). These cells were designed for studying the stimulation of human TLR7 by monitoring the activation of NF-κB. A SEAP (secreted embryonic alkaline phosphatase) reporter gene was placed under the control of the IFN-β minimal promoter fused to five NF-κB and AP-1-binding sites. The SEAP was induced by activating NF-κB and AP-1 via stimulating HEK-Blue hTLR7 cells with TLR7 ligands. Therefore the reporter expression was regulated by the NF-κB promoter upon stimulation of human TLR7 for 20 hours. The cell culture supernatant SEAP reporter activity was determined using QUANTI-Blue™ kit (Cat.#: rep-qb1, Invivogen, San Diego, Calif., USA) at a wavelength of 640 nm, a detection medium that turns purple/blue in the presence of alkaline phosphatase.
HEK293-Blue-hTLR7 cells were incubated at a density of 250,000˜450,000 cells/mL in a volume of 180 μL in a 96-well plate in Dulbecco's Modified Eagle's medium (DMEM) containing 4.5 g/L glucose, 50 U/mL penicillin, […] streptomycin, […] Normocin, 2 mM L-glutamine, 10% (v/v) heat-inactivated fetal bovine serum for 24 h. Then the HEK293-Blue-hTLR-7 cells were incubated with addition of 20 μL test compound in a serial dilution in the presence of final DMSO at 1% and perform incubation under 37° C. in a CO2 incubator for 20 hours. Then 20 μL of the supernatant from each well was incubated with 180 μL Quanti-blue substrate solution at 37° C. for 2 h and the absorbance was read at 620˜655 nm using a spectrophotometer. The signalling pathway that TLR7 activation leads to downstream NF-κB activation has been widely accepted, and therefore similar reporter assay was also widely used for evaluating TLR7 agonist (Tsuneyasu Kaisho and Takashi Tanaka, Trends in Immunology, Volume 29, Issue 7, July 2008, […]; Hiroaki Hemmi et al, Nature Immunology 3, 196-200 (2002).

murine TLR7 = target: T2, murine TLR7 (Mus musculus, UniProt P58681); assay: HEK293-Blue-mTLR7 assay (SEAP reporter); format: cell-based; settings: HEK293-Blue-mTLR7 cells, 20 hours, Quanti-Blue; read-out: EC50 murine TLR7 activation
T2 sequence (P58681 27-1050): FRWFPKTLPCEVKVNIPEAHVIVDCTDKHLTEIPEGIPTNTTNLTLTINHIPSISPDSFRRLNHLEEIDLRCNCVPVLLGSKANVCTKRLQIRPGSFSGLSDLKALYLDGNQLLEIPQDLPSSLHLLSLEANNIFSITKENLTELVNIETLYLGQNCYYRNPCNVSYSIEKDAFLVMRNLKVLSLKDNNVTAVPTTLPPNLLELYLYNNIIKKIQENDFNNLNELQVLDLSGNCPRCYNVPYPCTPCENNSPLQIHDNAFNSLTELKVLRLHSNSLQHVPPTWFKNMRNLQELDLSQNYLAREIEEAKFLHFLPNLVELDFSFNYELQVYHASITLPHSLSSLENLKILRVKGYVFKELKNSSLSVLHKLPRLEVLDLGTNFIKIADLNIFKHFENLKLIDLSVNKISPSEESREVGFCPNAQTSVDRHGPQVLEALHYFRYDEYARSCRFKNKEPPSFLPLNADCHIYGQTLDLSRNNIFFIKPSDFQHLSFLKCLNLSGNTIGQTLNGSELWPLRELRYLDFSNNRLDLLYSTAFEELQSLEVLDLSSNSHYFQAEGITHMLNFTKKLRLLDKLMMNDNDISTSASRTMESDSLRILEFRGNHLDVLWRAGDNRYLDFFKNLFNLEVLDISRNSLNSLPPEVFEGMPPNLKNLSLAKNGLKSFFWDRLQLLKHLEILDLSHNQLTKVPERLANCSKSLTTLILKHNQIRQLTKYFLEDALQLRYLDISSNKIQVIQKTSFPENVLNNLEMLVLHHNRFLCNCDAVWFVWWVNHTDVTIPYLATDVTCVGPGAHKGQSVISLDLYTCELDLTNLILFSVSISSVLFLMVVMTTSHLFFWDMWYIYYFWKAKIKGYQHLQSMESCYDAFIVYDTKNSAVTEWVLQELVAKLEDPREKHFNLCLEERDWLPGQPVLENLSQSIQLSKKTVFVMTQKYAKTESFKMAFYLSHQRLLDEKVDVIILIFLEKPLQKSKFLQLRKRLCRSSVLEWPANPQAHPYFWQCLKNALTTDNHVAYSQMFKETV
Protocol: The potency of the TLR7 agonist Example 4-A was assessed in murine TLR7 activation using a stable HEK293-Blue-mTLR7 cell line purchased from InvivoGen (Cat.#: hkb-mt1r7, San Diego, Calif., USA). Similar to the HEK293-Blue-hTLR7 as described in Example 26, the HEK293-Blue-mTLR7 was designed for studying the stimulation of murine TLR7 by monitoring the activation of NF-κB. A SEAP reporter gene was placed under the control of the IFN-β minimal promoter fused to five NF-κB and AP-1-binding sites. SEAP expression was induced by the activation of NF-κB and AP-1 upon stimulation of murine TLR7 with TLR7 ligands. SEAP expression in cell culture supernatant was determined using QUANTI-Blue™ kit (Cat.#: rep-qb1, Invivogen, San Diego, Ca, USA) at a wavelength of 640 nm, a detection medium that turns purple/blue in the presence of alkaline phosphatase.
HEK293-Blue-mTLR7 cells were incubated at a density of 250,000˜450,000 cells/mL in a volume of 180 μL in a 96-well plate in Dulbecco's Modified Eagle's medium (DMEM) containing 4.5 g/L glucose, 50 U/mL penicillin, […], […], 2 mM L-glutamine, 10% (v/v) heat-inactivated fetal bovine serum for 24 h. […] Then 20 μL of the supernatant from each well was incubated with 180 μl Quanti-blue substrate solution at 37° C. for 2 hours and the absorbance was read at 640 nm using a spectrophotometer.

Nc1nc2c(sc(=O)n2[C@H]2CS[C@@H](C(O)C3CC3)O2)c(=O)[nH]1 (single isomer, unassigned) [Example 4-A]
EC50 (human TLR7): 7.9 µM
EC50 (murine TLR7): 7.8 µM
